Publication PMC7237647, “Synthesis, in vitro and in vivo evaluation of ^11C-O-methylated arylpiperazines as potential serotonin 1A (5-HT1A) receptor antagonist radiotracers” (EJNMMI Radiopharmacy and Chemistry, 2020)

How the values were obtained:
[1] = Dynamic PET/MR imaging of brain uptake in rats; format: in vivo; details: rat; for Brain uptake: dynamic PET, bolus i.v. injection, 60 min scan
Description: […]. All experimental procedures were carried out in accordance with the Institutional Animal Care Committee ethical guidelines (Animal Use Protocol # 783).
Adult male Sprague Dawley rats (500–600 g, 8–12 months old) were anesthetized by isoflurane (5% induction; O2 rate: 2 L/min) and catheterized in the lateral tail vein using a Surflash Polyurethane IV Catheter 24G × 3/4″(Terumo; Somerset, New Jersey, US). Following insertion, the catheter was flushed with heparinized saline (30 IU/ml, ~ 200 μl). The animal was transferred to the scanner bed in prone position, the head immobilized in a flat skull position for the duration of the acquisition using built in ear and bite bars; the scanner bed temperature was initially set at 40 °C but was subject to alteration based on animals’ body temperature during the experiment. Anesthesia was maintained throughout the PET/MR scanning procedure (isoflurane: 1.5–2%; O2 rate: 1 L/min) and the animals’ body temperature and respiration parameters were closely monitored.
Imaging studies were conducted on a nanoScan PET/MRI 3 T tomograph (Mediso; Budapest, Hungary). At first, a scout MR was acquired for subsequent PET field of view (FOV) positioning. MR images were used to define anatomical regions of interest (ROIs) through PET/MRI image co-registration. MR sequences included: material map T1-weighted 2D-gradient echo (GRE, TR 354 ms, TE 3.64) multi-FOV sequence for PET and MR co-registration and PET scatter and attenuation corrections, and T2-weighted 2D-fast spin-echo (FSE, TR 3971 ms, TE 87.5 ms) sequence for co-registration with standard rat brain MR template and atlas of Schwarz et al. ([2006]), and PET ROI analyses. MR images were acquired either before or after PET imaging.
[…]. mass injected for [^11C]1–3: 0.15–0.40 nmol/kg), a 60 min emission list mode scan was acquired with an energy window of 400–600 keV.
The acquired list mode data was sorted into 33, 3D (3 × 5 s, 3 × 15 s, 3 × 20s, 7 × 60s and 17 × 180 s) true sinograms (ring difference 84). The 3D sinograms were converted in 2D sinograms using fourier-rebinning (Defrise et al. [1997]), during which corrections were included for detector geometry and efficiencies, attenuation and scatter, prior to image reconstruction using a 2D–filtered back projection (FBKP) with an Hann filter at a cutoff of 0.50 cm-1. A static image of the complete emission acquisition was reconstructed with the manufacturer’s proprietary iterative 3D algorithm (6 subsets, 4 iterations). All image data were corrected for dead-time and decay corrected to the start of acquisition. The dynamic FBKP images were used for the extraction of time-activity curves (TACs). The static iterative image was used for PET and MR co-registration and also for co-registration with standard rat brain MR template and atlas (Schwarz et al. [2006]). Image analyses and extraction of regional brain TACs were performed using Amide software (v1.0.4) (Loening and Gambhir [2003]). Standardized uptake values (SUV) were calculated by normalizing regional radioactivity for injected radioactivity and body weight of the animal. Regional brain BP were obtained by using simplified reference tissue model (SRTM) of Lammertsma and Hume ([1996]), with averaged TACs of left and right cerebellum as the reference. […] Percentages of blocking were calculated by the equation: Blocking% = 100 x (BPblocking – BPbaseline)/BPbaseline.

5-HT1A receptors = target: 5-HT1A receptors; set-up: method as in Yasuno et al. [2006]; details: ref Yasuno et al. [2006]; cited from earlier work
5-HT2B receptors = target: 5-HT2B receptors; set-up: method as in Yasuno et al. [2006]; details: ref Yasuno et al. [2006]; cited from earlier work
[2] = target: alpha-1 (α1) adrenergic receptors; set-up: method as in Yasuno et al. [2006]; details: ref Yasuno et al. [2006]; cited from earlier work
D2 = target: D2; set-up: method as in Yasuno et al. [2006]; details: ref Yasuno et al. [2006]; cited from earlier work
D3 = target: D3; set-up: method as in Yasuno et al. [2006]; details: ref Yasuno et al. [2006]; cited from earlier work
D4 = target: D4; set-up: method as in Yasuno et al. [2006]; details: ref Yasuno et al. [2006]; cited from earlier work
α1-adrenergic receptors [3] = target: α1-adrenergic receptors; set-up: method as in Chemel et al. [2006]; details: ref Chemel et al. [2006]; cited from earlier work
α1-adrenergic receptors [4] = assay: PET/MR blocking study with prazosin pre-treatment; format: in vivo, Sprague Dawley rats; details: prazosin 2 mg/kg IV 20 min prior to tracer, rat
Description: 5-HT1A receptor selectivity of the radiotracer with the most promising brain penetrating properties was further investigated in two separate baseline and pre-treatment (blocking) experiments. A within-subject PET/MR imaging design was employed for baseline and blocking experiments. In the first PET/MR imaging session, brain radiotracer uptake was determined under baseline conditions whereby radiotracer was intravenously administered simultaneously with the start of PET acquisition. The catheter was flushed with heparinized saline (~ 100 μl) and capped to allow blocker/radiotracer injections for the subsequent pre-treatment experiment. Before the start of the second PET measurement, the animals were infused with a suitable blocking agent intravenously 20 min prior to radiotracer injection and concomitant PET acquisition. To confirm target engagement at 5-HT1A receptor, WAY-100635 maleate (Sigma-Aldrich), a potent 5-HT1A receptor antagonist (2 mg/kg) was infused intravenously 20 min before radiotracer injection. In order to further investigate potential off-target binding at α1-adrenergic receptors in vivo, prazosin hydrochloride (Sigma-Aldrich), a potent α1-adrenergic receptor antagonist (2 mg/kg) was infused 20 min before radiotracer injection and PET acquisition.
The acquired list mode data was sorted into 33, 3D (3 × 5 s, 3 × 15 s, 3 × 20s, 7 × 60s and 17 × 180 s) true sinograms (ring difference 84). The 3D sinograms were converted in 2D sinograms using fourier-rebinning (Defrise et al. [1997]), during which corrections were included for detector geometry and efficiencies, attenuation and scatter, prior to image reconstruction using a 2D–filtered back projection (FBKP) with an Hann filter at a cutoff of 0.50 cm-1. A static image of the complete emission acquisition was reconstructed with the manufacturer’s proprietary iterative 3D algorithm (6 subsets, 4 iterations). All image data were corrected for dead-time and decay corrected to the start of acquisition. The dynamic FBKP images were used for the extraction of time-activity curves (TACs). The static iterative image was used for PET and MR co-registration and also for co-registration with standard rat brain MR template and atlas (Schwarz et al. [2006]). Image analyses and extraction of regional brain TACs were performed using Amide software (v1.0.4) (Loening and Gambhir [2003]). Standardized uptake values (SUV) were calculated by normalizing regional radioactivity for injected radioactivity and body weight of the animal. Regional brain BP were obtained by using simplified reference tissue model (SRTM) of Lammertsma and Hume ([1996]), with averaged TACs of left and right cerebellum as the reference. This was performed by using the basis function method (BFM) of Gunn et al. ([1997]) in the package of Turku PET Centre (https://gitlab.utu.fi/vesoik/tpcclib) (Gunn et al. [1997]). Percentages of blocking were calculated by the equation: Blocking% = 100 x (BPblocking – BPbaseline)/BPbaseline.

5-HT1B = target: T1, 5-HT1B (Homo sapiens, UniProt P28222); assay: NIMH-PDSP radioligand binding assay, 5-HT1B
T1 construct: NIMH-PDSP
T1 sequence (P28222 whole entry, species assumed): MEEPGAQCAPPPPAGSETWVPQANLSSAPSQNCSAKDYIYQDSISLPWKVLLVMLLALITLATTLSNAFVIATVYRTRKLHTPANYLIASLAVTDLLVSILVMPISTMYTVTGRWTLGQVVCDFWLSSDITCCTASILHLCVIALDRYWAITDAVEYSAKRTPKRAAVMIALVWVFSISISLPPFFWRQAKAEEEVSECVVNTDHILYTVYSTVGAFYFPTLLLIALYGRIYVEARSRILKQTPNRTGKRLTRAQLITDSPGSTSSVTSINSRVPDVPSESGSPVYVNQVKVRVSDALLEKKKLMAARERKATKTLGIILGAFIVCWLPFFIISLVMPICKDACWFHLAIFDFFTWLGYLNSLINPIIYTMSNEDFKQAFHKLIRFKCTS
Description: (§1) . Cross selectivity for biogenic amines, neurotransmitter receptors, and transporters were determined by radioligand binding assays through NIMH- PDSP using validated and established protocols ([NIMH-PDSP Assay Protocol Book Version III, March 2018]).

5-HT1E = target: T2, 5-HT1E (Homo sapiens, UniProt P28566); assay: NIMH-PDSP radioligand binding assay, 5-HT1E
T2 construct: NIMH-PDSP
T2 sequence (P28566 whole entry, species assumed): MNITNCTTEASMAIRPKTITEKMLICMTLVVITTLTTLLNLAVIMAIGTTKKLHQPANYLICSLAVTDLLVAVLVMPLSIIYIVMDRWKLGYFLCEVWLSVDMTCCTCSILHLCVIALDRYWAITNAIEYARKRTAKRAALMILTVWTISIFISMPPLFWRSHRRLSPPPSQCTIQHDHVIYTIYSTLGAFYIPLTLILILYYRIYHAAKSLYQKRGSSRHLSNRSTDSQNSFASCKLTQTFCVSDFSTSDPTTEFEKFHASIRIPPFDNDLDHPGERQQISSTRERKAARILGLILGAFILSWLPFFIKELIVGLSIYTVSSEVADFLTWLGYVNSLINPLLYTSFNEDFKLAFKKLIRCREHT
Description: as §1

5-HT1D = target: T3, 5-HT1D (Homo sapiens, UniProt P28221); assay: NIMH-PDSP radioligand binding assay, 5-HT1D
T3 construct: NIMH-PDSP
Description: as §1

5-HT2B = target: T4, 5-HT2B (Homo sapiens, UniProt P41595); assay: NIMH-PDSP radioligand binding assay, 5-HT2B
T4 construct: NIMH-PDSP
T4 sequence (P41595 whole entry, species assumed): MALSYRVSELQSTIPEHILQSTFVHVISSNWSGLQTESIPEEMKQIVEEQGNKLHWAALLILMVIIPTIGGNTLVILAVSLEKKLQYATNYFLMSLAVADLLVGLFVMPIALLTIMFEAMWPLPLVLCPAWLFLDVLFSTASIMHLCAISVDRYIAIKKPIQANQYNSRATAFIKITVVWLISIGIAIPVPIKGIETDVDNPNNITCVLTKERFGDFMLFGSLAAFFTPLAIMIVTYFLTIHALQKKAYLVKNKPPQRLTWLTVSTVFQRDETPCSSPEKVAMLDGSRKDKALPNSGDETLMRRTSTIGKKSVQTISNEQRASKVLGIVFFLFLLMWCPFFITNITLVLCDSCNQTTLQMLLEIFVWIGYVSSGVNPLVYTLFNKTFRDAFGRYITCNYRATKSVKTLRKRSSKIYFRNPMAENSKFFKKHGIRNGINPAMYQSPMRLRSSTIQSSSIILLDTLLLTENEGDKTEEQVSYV
Description: as §1

5-HT3 = target: T5, 5-HT3 (Homo sapiens, UniProt P46098); assay: NIMH-PDSP radioligand binding assay, 5-HT3
T5 construct: NIMH-PDSP
T5 sequence (P46098 24-478): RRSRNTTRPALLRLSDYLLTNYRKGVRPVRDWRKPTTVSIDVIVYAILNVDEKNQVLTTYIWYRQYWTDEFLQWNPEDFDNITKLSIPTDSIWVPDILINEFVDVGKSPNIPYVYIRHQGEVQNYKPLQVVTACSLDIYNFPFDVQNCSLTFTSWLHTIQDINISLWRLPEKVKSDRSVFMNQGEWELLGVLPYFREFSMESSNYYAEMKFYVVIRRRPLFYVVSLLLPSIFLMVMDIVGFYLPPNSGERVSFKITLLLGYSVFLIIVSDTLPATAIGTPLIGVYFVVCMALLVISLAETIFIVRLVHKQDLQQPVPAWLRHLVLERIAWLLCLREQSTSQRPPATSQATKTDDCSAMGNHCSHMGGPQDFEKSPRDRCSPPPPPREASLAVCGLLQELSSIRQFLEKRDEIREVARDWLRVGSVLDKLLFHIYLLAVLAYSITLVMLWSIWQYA
Description: as §1

5-HT4 = target: T6, 5-HT4 (Homo sapiens, UniProt Q13639); assay: NIMH-PDSP radioligand binding assay, 5-HT4
T6 construct: NIMH-PDSP
Description: as §1

5-HT5a = target: T7, 5-HT5a (Homo sapiens, UniProt P47898); assay: NIMH-PDSP radioligand binding assay, 5-HT5a
T7 construct: NIMH-PDSP
T7 sequence (P47898 whole entry, species assumed): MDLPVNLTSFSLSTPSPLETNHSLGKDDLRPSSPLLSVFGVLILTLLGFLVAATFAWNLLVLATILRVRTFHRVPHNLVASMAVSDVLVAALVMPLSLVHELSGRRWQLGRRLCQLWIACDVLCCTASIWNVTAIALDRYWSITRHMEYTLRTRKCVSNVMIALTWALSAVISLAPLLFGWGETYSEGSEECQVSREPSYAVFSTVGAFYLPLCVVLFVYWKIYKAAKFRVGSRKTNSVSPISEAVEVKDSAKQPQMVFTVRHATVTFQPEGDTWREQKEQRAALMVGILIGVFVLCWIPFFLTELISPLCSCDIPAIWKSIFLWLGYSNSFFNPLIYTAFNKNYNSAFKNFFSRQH
Description: as §1

5-HT6 = target: T8, 5-HT6 (Homo sapiens, UniProt P50406); assay: NIMH-PDSP radioligand binding assay, 5-HT6
T8 construct: NIMH-PDSP
T8 sequence (P50406 whole entry, species assumed): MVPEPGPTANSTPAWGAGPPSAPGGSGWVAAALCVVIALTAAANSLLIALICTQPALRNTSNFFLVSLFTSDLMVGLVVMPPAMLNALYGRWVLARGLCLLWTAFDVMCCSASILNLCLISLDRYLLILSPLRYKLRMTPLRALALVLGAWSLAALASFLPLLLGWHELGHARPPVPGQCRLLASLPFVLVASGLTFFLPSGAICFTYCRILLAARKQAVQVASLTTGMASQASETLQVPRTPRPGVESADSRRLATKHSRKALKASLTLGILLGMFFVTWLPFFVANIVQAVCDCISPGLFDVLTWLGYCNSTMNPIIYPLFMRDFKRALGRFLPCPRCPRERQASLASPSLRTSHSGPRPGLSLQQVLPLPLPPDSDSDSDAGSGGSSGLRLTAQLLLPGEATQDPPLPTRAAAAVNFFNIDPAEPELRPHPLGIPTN
Description: as §1

D3R = target: T9, D3R (Homo sapiens, UniProt P35462); assay: NIMH-PDSP radioligand binding assay, D3R
T9 construct: NIMH-PDSP
T9 sequence (P35462 whole entry): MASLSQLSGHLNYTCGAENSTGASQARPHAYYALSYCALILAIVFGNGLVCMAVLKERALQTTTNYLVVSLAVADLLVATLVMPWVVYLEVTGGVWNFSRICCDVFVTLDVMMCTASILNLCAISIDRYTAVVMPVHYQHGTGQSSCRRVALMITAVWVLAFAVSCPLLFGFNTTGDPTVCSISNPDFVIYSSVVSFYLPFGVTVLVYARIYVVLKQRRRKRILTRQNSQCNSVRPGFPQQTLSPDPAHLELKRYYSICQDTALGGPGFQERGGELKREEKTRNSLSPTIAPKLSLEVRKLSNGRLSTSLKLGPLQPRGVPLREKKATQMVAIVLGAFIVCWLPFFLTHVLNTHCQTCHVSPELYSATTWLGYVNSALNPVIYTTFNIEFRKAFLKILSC
Description: as §1

D4R = target: T10, D4R (Homo sapiens, UniProt P21917); assay: NIMH-PDSP radioligand binding assay, D4R
T10 construct: NIMH-PDSP
T10 sequence (P21917 1-419): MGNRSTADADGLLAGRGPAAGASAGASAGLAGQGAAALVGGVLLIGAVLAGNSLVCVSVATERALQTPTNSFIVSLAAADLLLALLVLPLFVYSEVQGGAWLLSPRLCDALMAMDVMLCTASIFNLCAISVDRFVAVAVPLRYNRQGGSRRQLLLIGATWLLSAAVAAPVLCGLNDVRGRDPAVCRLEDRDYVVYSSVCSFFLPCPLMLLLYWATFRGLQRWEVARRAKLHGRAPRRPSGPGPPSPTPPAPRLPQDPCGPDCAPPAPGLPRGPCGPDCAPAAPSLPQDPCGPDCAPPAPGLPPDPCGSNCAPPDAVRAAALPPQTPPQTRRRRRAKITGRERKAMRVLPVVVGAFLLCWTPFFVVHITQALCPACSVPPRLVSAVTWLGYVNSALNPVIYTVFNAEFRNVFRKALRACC
Description: as §1

DAT = DAT (Homo sapiens, UniProt Q01959); assay: NIMH-PDSP radioligand binding assay, DAT
Chain of DAT (Q01959 whole entry, species assumed): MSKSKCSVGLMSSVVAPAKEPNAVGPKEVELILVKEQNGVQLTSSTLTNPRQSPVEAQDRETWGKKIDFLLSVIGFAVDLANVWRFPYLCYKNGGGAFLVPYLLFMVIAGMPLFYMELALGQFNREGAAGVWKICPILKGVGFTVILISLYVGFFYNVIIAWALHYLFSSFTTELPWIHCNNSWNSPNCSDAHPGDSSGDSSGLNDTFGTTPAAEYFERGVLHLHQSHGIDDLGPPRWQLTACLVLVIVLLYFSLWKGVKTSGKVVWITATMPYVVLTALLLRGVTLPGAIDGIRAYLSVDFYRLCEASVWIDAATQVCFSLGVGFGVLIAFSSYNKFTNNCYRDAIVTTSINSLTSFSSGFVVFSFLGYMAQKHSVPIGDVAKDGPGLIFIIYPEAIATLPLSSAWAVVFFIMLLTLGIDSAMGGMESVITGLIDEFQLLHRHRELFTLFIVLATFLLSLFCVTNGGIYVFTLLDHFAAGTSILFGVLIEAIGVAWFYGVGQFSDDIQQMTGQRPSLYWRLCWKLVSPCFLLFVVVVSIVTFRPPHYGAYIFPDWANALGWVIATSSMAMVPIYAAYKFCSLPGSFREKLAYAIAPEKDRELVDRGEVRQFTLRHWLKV
Description: as §1

NET = NET (Homo sapiens, UniProt P23975); assay: NIMH-PDSP radioligand binding assay, NET
Chain of NET (P23975 whole entry): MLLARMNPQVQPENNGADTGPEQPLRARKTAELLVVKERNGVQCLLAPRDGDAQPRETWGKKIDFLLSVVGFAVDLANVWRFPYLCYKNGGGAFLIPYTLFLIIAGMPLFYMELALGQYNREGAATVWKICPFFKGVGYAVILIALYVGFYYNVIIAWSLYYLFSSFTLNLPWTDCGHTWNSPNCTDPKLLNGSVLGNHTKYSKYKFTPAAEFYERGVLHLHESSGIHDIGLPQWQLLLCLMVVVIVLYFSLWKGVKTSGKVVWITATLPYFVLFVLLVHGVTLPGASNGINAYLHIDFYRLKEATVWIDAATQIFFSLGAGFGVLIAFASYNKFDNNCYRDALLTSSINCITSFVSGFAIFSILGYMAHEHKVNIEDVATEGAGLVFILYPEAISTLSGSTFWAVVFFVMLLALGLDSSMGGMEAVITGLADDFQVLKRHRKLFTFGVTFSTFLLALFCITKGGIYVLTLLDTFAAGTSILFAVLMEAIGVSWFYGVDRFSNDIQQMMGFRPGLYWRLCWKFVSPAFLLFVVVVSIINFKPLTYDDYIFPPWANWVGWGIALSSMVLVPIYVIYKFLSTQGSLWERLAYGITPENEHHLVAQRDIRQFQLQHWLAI
Description: as §1

SERT = SERT (Homo sapiens, UniProt P31645); assay: NIMH-PDSP radioligand binding assay, SERT
Chain of SERT (P31645 whole entry, species assumed): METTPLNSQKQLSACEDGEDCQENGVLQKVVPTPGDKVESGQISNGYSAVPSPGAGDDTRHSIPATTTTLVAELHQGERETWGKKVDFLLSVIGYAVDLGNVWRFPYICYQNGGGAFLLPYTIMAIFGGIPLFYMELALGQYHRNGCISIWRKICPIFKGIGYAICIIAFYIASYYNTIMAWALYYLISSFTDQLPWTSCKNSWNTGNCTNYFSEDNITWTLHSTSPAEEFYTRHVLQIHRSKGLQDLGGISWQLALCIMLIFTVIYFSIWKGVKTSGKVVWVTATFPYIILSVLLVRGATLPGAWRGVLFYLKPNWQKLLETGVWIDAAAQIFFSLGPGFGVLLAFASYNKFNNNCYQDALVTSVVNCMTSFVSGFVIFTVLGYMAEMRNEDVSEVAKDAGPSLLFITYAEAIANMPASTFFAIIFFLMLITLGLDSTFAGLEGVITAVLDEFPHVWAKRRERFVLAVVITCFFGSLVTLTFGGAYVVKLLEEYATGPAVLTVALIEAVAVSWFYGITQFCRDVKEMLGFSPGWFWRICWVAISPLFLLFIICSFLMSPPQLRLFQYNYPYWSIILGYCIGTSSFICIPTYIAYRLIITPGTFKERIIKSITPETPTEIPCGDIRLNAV
Description: as §1

NOP = target: T11, NOP (Homo sapiens, UniProt P41146); assay: NIMH-PDSP radioligand binding assay, NOP
T11 construct: NIMH-PDSP
T11 sequence (P41146 whole entry): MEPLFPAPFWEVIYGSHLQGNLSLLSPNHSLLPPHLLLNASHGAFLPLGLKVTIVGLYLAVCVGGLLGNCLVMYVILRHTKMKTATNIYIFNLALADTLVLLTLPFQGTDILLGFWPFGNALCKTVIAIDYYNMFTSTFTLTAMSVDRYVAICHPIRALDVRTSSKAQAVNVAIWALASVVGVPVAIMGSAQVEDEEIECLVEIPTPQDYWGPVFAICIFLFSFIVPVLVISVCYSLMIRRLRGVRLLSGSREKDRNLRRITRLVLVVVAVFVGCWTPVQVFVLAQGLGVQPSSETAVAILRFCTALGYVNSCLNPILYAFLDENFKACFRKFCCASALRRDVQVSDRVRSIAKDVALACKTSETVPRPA
Description: as §1

PBR = target: T12, PBR (Rattus norvegicus, UniProt P16257); assay: NIMH-PDSP radioligand binding assay, PBR
T12 construct: NIMH-PDSP
Description: as §1

Sigma1R = target: T13, Sigma1R (Homo sapiens, UniProt Q99720); assay: NIMH-PDSP radioligand binding assay, Sigma1R
T13 construct: NIMH-PDSP
T13 sequence (Q99720 whole entry, species assumed): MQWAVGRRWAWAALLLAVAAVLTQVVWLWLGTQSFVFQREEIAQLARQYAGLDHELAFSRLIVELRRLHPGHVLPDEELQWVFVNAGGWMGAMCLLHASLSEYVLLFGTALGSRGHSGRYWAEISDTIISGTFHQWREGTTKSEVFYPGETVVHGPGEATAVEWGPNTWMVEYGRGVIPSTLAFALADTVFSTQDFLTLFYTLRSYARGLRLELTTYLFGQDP
Description: as §1

SMILES: N#CN=C(NCCCN1CCN(c2ccccc2O)CC1)c1ccccn1 [compound 7, N'-Cyano-N-(3-(4-(2-hydroxyphenyl)piperazin-1-yl)propyl)picolinamidine]
- melting point: 137 to 138 °C

SMILES: [11CH3]Oc1ccccc1N1CCN(CCNC(=O)c2ccccn2)CC1 [[^11C]2]
- Brain uptake [1]: negligible

SMILES: COc1ccccc1N1CCN(CCC(C(=O)N2CCCCCC2)c2ccccc2)CC1 (stereo in doubt) [[^11C](R)-RWAY]
- Ki (5-HT1A receptors): 0.6 nM
- Ki (5-HT2B receptors): 7.2 nM
- Ki [2]: 10.3 nM
- Ki (D2): 34.5 nM
- Ki (D3): 5.1 nM
- Ki (D4): 15.6 nM

SMILES: [11CH3]Oc1ccccc1N1CCN(CCCN/C(=N\C#N)c2ccccn2)CC1 [[^11C]1]
- Brain uptake [1]: negligible

SMILES: COc1ccccc1N1CCN(CCN(C(=O)C2CCCCC2)c2ccccn2)CC1 [[carbonyl-^11C]WAY100635]
- Ki (α1-adrenergic receptors [3]): 16.4 nM

SMILES: O=C(NCCN1CCN(c2ccccc2O)CC1)c1ccccn1 [10a, N-(2-(4-(2-hydroxyphenyl)piperazin-1-yl)ethyl)picolinamide]
- melting point: 112 to 113 °C

SMILES: [11CH3]Oc1ccccc1N1CCN(CCNC(=O)c2ccncc2)CC1 [[^11C]3]
- early peak SUV in brain ([1]; male, Sprague Dawley, in vivo): 4–5
- time of early peak SUV following radiotracer injection ([1]; male, Sprague Dawley, in vivo): ~ 1 min
- washout from brain ([1]; in vivo): fast
- decrease of whole brain BP (α1-adrenergic receptors [4]; SRTM, cerebellum reference): 63%
- decrease of BP in anterior cingulate cortex (α1-adrenergic receptors [4]): 69%
- decrease of BP in hippocampus (α1-adrenergic receptors [4]): 56%
- decrease of BP in striatum (α1-adrenergic receptors [4]): 34%
- decrease of BP in thalamus (α1-adrenergic receptors [4]): 73%
- decrease of binding in the saliva gland (α1-adrenergic receptors [4]): 68%

SMILES: O=C(NCCN1CCN(c2ccccc2O)CC1)c1ccncc1 [10b, N-(2-(4-(2-hydroxyphenyl)piperazin-1-yl)ethyl)isonicotinamide]
- melting point: 105 to 106 °C

SMILES: COc1ccccc1N1CCN(CCNC(=O)c2ccncc2)CC1 [Compound 3]
- Ki (5-HT1B): > 10000 nM
- Ki (5-HT1E): > 10000 nM
- Ki (5-HT1D): 1180 nM
- Ki (5-HT2B): 137 nM
- Ki (5-HT3): > 10000 nM
- Ki (5-HT4): > 10000 nM
- Ki (5-HT5a): 1810 nM
- Ki (5-HT6): > 10000 nM
- Ki (D3R): 133 nM
- Ki (D4R): 153 nM
- Ki (DAT): > 10000 nM
- Ki (NET): > 10000 nM
- Ki (SERT): > 10000 nM
- Ki (NOP): > 10000 nM
- Ki (PBR): > 10000 nM
- Ki (Sigma1R): > 10000 nM
